In US20220175682A1, “Siremadlin Succinate” (Novartis AG, priority 2019, published 2022):
Blank lines part the entries; values can stand above or below the compound they belong to.

How the values were obtained:
Assay type in all cases: physicochemical
[1] = FT4 powder rheometer powder characterization (8-parameter model); parameters: MPS-15: unit not given here; conditions: for sBFE (Specific Basic Flow Energy): FT4, Group 1, 25 mm_1C_Split_Rep+VFR_R01; for sBFE (Specific Basic Flow Energy) / SI (Stability Index) / MPS-15 (major Principal Stress @ 15 kPa) / FF-15 (Flow function @ 15 kPa) / CBD-15 (Consolidated Bulk Density @ 15 kPa) / CPS (Compressibility) / WFA (Wall Friction Angle): reference powders; for SI (Stability Index) / SI / sBFE: FT4, Group 1; for SI (Stability Index) / FF-15 (Flow function @ 15 kPa): dimensionless; for MPS-15 (major Principal Stress @ 15 kPa): FT4, Group 2, 25 mm_Shear_15 kPa; for FF-15 (Flow function @ 15 kPa) / CBD-15 (Consolidated Bulk Density @ 15 kPa): FT4, Group 2, shear cell; for CPS (Compressibility): FT4, Group 3, 25 mm_Compressibility_1-15 kPa; for WFA (Wall Friction Angle): FT4, Group 4, 25 mm_Wall Friction_30 kPa; for SI / sBFE / CBD-15 / FF-15 / MPS-15 / CPS / WFA: HDM201-BBA batches; for CBD-15 / FF-15 / MPS-15: FT4, Group 2; for CPS: FT4, Group 3; for WFA: FT4, Group 4
Protocol: A standard FT4 powder rheometer offers at least 6 powder characterization methods (per measurement cylinder diameter). Those selected for analysis are
25 mm_1C_Split_Rep+VFR_R01;
25 mm_Compressibility_1-15 kPa;
25 mm_Wall Friction_30 kPa.
Each characterization method produces several kind of response parameters (default or manually selectable). A set of complete powder characterizations (at least 22 response parameters per row) were measured for more than 350 different powders and more than 60 different compounds using a standard FT4 powder rheometer and compiled in a database. The various parameters were correlated to the respective filling behavior in order to determine a set of parameters and parameter ranges which is capable of distinguishing and predicting filling behavior of powders.
sBFE: Specific Basic Flow Energy (mJ/g): obtained from BFE (obtained from standard FT4 test platform) divided by the split mass of the sample.
SI: Stability Index, standard variable, dimensionless.
SE: Specific Energy (mJ/g), standard variable
MPS @ 15 kPa: major Principal Stress, standard variable
FF @ 15 kPa: Flow function (dimensionless), from shear cell, standard variable
CBD @ 15 kPa: Consolidated Bulk Density (g/mL), standard variable (from shear cell)
CPS: Compressibility (%), standard variable
WFA: Wall Friction Angle (degree°), standard variable.

[2] = Particle size distribution by laser light diffraction (LLD); conditions: laser light diffraction, pin-milled HDM201-BBA batches
From the text: Values are given in micrometer, measurements done by laser light diffraction (LLD).

[3] = Crystal/particle shape, size and bulk density of reference API powders
From the text: NBU928 is a fumarate salt with a challenging crystallization process. The resulting particles typically have an elongated aspect ratio, crystals are lath shaped up to 400 μm long with strong agglomeration tendency. Such kind of crystal shape give a resulting powder bulk which is not directly processable in any capsule filler equipment. Therefore the API powder was subjected to a Particle Engineering treatment to selectively grow the shot side of the crystal then it was milled down through a pin mill equipment obtaining a quite regular fragmentation, leading to smaller particles with more steady aspect ratio, free of agglomeration, with an average diameter (X50) of about 25 μm.
CDZ173 is a mono-phosphate salt compound. It is characterized by needle shaped crystals with aspect ratio >10, agglomerated/fused rod-like crystals, very low bulk density (always <0.2 g/mL, very often <0.12 g/mL). It is here reported in two different variants (milled and un-milled).

Structure (SMILES): CN(C)C(=O)c1cc2cnc(Nc3ccc(N4CCNCC4)cn3)nc2n1C1CCCC1 [1. LEE011, reference compound]
- sBFE (Specific Basic Flow Energy) [1]: 38 mJ/g
- SI (Stability Index) [1]: 0.9
- MPS-15 (major Principal Stress @ 15 kPa) [1]: 42 kPa
- FF-15 (Flow function @ 15 kPa) [1]: 5.8
- CBD-15 (Consolidated Bulk Density @ 15 kPa) [1]: 0.6 g/mL
- CPS (Compressibility) [1]: 26%
- WFA (Wall Friction Angle) [1]: 40 °

Structure (SMILES): OC[C@H]1O[C@@H](O[C@H]2[C@H](O)[C@@H](O)[C@@H](O)O[C@@H]2CO)[C@H](O)[C@@H](O)[C@H]1O [4. Lactose 125M, reference compound]
- sBFE (Specific Basic Flow Energy) [1]: 16 mJ/g
- CPS (Compressibility) [1]: 13%
- WFA (Wall Friction Angle) [1]: 27 °

- sBFE (Specific Basic Flow Energy) [1]: 26 mJ/g
- SI (Stability Index) [1]: 1.1
- MPS-15 (major Principal Stress @ 15 kPa) [1]: 27 kPa
- FF-15 (Flow function @ 15 kPa) [1]: 15
- CBD-15 (Consolidated Bulk Density @ 15 kPa) [1]: 0.7 g/mL
- CPS (Compressibility) [1]: 11%
- WFA (Wall Friction Angle) [1]: 29 °
Structure (SMILES): CC1(N)CCN(c2cccnc2NC(=O)c2nc(-c3ncccc3C(F)(F)F)cnc2N)CC1 [5. LXS196, reference compound]

Structure (SMILES): CCC(=O)N1CC[C@H](Nc2ncnc3c2CN(c2cnc(OC)c(C(F)(F)F)c2)CC3)C1 [6. CDZ173, reference compound]
- sBFE (Specific Basic Flow Energy) [1]: 29 mJ/g
- SI (Stability Index) [1]: 1.5
- MPS-15 (major Principal Stress @ 15 kPa) [1]: 50 kPa
- FF-15 (Flow function @ 15 kPa) [1]: 1.4
- CBD-15 (Consolidated Bulk Density @ 15 kPa) [1]: 0.26 g/mL
- CPS (Compressibility) [1]: 43%
- WFA (Wall Friction Angle) [1]: 50 °

Structure (SMILES): CCC(=O)N1CC[C@H](Nc2ncnc3c2CN(c2cnc(OC)c(C(F)(F)F)c2)CC3)C1 [7. CDZ173, reference compound]
- sBFE (Specific Basic Flow Energy) [1]: 82 mJ/g
- SI (Stability Index) [1]: 1.1
- MPS-15 (major Principal Stress @ 15 kPa) [1]: 9.6 kPa
- FF-15 (Flow function @ 15 kPa) [1]: 5
- CBD-15 (Consolidated Bulk Density @ 15 kPa) [1]: 0.2 g/mL
- CPS (Compressibility) [1]: 56%
- WFA (Wall Friction Angle) [1]: 37 °

Structure (SMILES): COc1ncc(-c2nc3c(n2C(C)C)[C@H](c2ccc(Cl)cc2)N(c2cc(Cl)cn(C)c2=O)C3=O)c(OC)n1.O=C(O)CCC(=O)O [Batch A1]
- X10 ([2]; listed as A1): 1 micrometer
- X50 ([2]; listed as A1): 5 micrometer
- X90 ([2]; listed as A1): 14 micrometer
- SI ([1]; listed as A1): 1.07
- sBFE ([1]; listed as A1): 6 mJ/g
- CBD-15 ([1]; listed as A1): 0.53 g/mL
- FF-15 ([1]; listed as A1): 2.5
- MPS-15 ([1]; listed as A1): 32
- CPS ([1]; listed as A1): 43%
- WFA ([1]; listed as A1): 35 °

Structure (SMILES): COc1ncc(-c2nc3c(n2C(C)C)[C@H](c2ccc(Cl)cc2)N(c2cc(Cl)cn(C)c2=O)C3=O)c(OC)n1.O=C(O)CCC(=O)O [Batch A2]
- X10 ([2]; listed as A2): 4 micrometer
- X50 ([2]; listed as A2): 28 micrometer
- X90 ([2]; listed as A2): 60 micrometer
- SI ([1]; listed as A2): 1.11
- sBFE ([1]; listed as A2): 9 mJ/g
- CBD-15 ([1]; listed as A2): 0.68 g/mL
- FF-15 ([1]; listed as A2): 5.5
- MPS-15 ([1]; listed as A2): 29
- CPS ([1]; listed as A2): 32%
- WFA ([1]; listed as A2): 34 °

Structure (SMILES): COc1ncc(-c2nc3c(n2C(C)C)[C@H](c2ccc(Cl)cc2)N(c2cc(Cl)cn(C)c2=O)C3=O)c(OC)n1.O=C(O)CCC(=O)O [Batch A3]
- X10 ([2]; listed as A3): 9 micrometer
- X50 ([2]; listed as A3): 45 micrometer
- X90 ([2]; listed as A3): 95 micrometer
- SI ([1]; listed as A3): 1.12
- sBFE ([1]; listed as A3): 20 mJ/g
- CBD-15 ([1]; listed as A3): 0.69 g/mL
- FF-15 ([1]; listed as A3): 9.4
- MPS-15 ([1]; listed as A3): 29
- CPS ([1]; listed as A3): 15%
- WFA ([1]; listed as A3): 34 °

Structure (SMILES): COc1ncc(-c2nc3c(n2C(C)C)[C@H](c2ccc(Cl)cc2)N(c2cc(Cl)cn(C)c2=O)C3=O)c(OC)n1.O=C(O)CCC(=O)O [Batch B1]
- X10 ([2]; listed as B1): 3 micrometer
- X50 ([2]; listed as B1): 16 micrometer
- X90 ([2]; listed as B1): 50 micrometer
- SI ([1]; listed as B1): 1.14
- sBFE ([1]; listed as B1): 6 mJ/g
- CBD-15 ([1]; listed as B1): 0.64 g/mL
- FF-15 ([1]; listed as B1): 3.8
- MPS-15 ([1]; listed as B1): 29
- CPS ([1]; listed as B1): 31%
- WFA ([1]; listed as B1): 34 °

Structure (SMILES): COc1ncc(-c2nc3c(n2C(C)C)[C@H](c2ccc(Cl)cc2)N(c2cc(Cl)cn(C)c2=O)C3=O)c(OC)n1.O=C(O)CCC(=O)O [Batch B2]
- X10 ([2]; listed as B2): 4 micrometer
- X50 ([2]; listed as B2): 21 micrometer
- X90 ([2]; listed as B2): 71 micrometer
- SI ([1]; listed as B2): 1.01
- sBFE ([1]; listed as B2): 8 mJ/g
- CBD-15 ([1]; listed as B2): 0.65 g/mL
- FF-15 ([1]; listed as B2): 3.8
- MPS-15 ([1]; listed as B2): 28
- CPS ([1]; listed as B2): 38%
- WFA ([1]; listed as B2): 35 °

Structure (SMILES): COc1ncc(-c2nc3c(n2C(C)C)[C@H](c2ccc(Cl)cc2)N(c2cc(Cl)cn(C)c2=O)C3=O)c(OC)n1.O=C(O)CCC(=O)O [Batch B3]
- X10 ([2]; listed as B3): 5 micrometer
- X50 ([2]; listed as B3): 26 micrometer
- X90 ([2]; listed as B3): 87 micrometer
- SI ([1]; listed as B3): 1.11
- sBFE ([1]; listed as B3): 9 mJ/g
- CBD-15 ([1]; listed as B3): 0.70 g/mL
- FF-15 ([1]; listed as B3): 5.3
- MPS-15 ([1]; listed as B3): 29
- CPS ([1]; listed as B3): 26%
- WFA ([1]; listed as B3): 35 °

Structure (SMILES): COc1ncc(-c2nc3c(n2C(C)C)[C@H](c2ccc(Cl)cc2)N(c2cc(Cl)cn(C)c2=O)C3=O)c(OC)n1.O=C(O)CCC(=O)O [Batch C1]
- X10 ([2]; listed as C1): 21 micrometer
- X50 ([2]; listed as C1): 69 micrometer
- X90 ([2]; listed as C1): 163 micrometer
- SI ([1]; listed as C1): 1.15
- sBFE ([1]; listed as C1): 33 mJ/g
- CBD-15 ([1]; listed as C1): 0.68 g/mL
- FF-15 ([1]; listed as C1): 9.0
- MPS-15 ([1]; listed as C1): 31
- CPS ([1]; listed as C1): 14%
- WFA ([1]; listed as C1): 34 °

Structure (SMILES): COc1ncc(-c2nc3c(n2C(C)C)[C@H](c2ccc(Cl)cc2)N(c2cc(Cl)cn(C)c2=O)C3=O)c(OC)n1.O=C(O)CCC(=O)O [Batch C2]
- X10 ([2]; listed as C2): 6 micrometer
- X50 ([2]; listed as C2): 35 micrometer
- X90 ([2]; listed as C2): 83 micrometer
- SI ([1]; listed as C2): 1.01
- sBFE ([1]; listed as C2): 12 mJ/g
- CBD-15 ([1]; listed as C2): 0.70 g/mL
- FF-15 ([1]; listed as C2): 6.4
- MPS-15 ([1]; listed as C2): 29
- CPS ([1]; listed as C2): 25%
- WFA ([1]; listed as C2): 35 °

Structure (SMILES): COc1ncc(-c2nc3c(n2C(C)C)[C@H](c2ccc(Cl)cc2)N(c2cc(Cl)cn(C)c2=O)C3=O)c(OC)n1.O=C(O)CCC(=O)O [Batch C3]
- X10 ([2]; listed as C3): 3 micrometer
- X50 ([2]; listed as C3): 19 micrometer
- X90 ([2]; listed as C3): 58 micrometer
- SI ([1]; listed as C3): 1.03
- sBFE ([1]; listed as C3): 8 mJ/g
- CBD-15 ([1]; listed as C3): 0.62 g/mL
- FF-15 ([1]; listed as C3): 3.7
- MPS-15 ([1]; listed as C3): 29
- CPS ([1]; listed as C3): 36%

Structure (SMILES): CCC(=O)N1CC[C@H](Nc2ncnc3c2CN(c2cnc(OC)c(C(F)(F)F)c2)CC3)C1.O=P(O)(O)O [CDZ173]
- bulk density ([3]; always): < 0.2 g/mL
- aspect ratio of crystals ([3]; needle shaped crystals): > 10
- bulk density ([3]; very often): < 0.12 g/mL
